In patent US4022832A, “2-Aminoacetamido-α-phenylbenzylideneaminoalkanol derivatives and process for the preparation thereof” (Sankyo Company Limited, priority 1975, dated 1977):

How the values were obtained:
Type in all cases: in vivo
mice [1] = experiment: Potentiation of anesthesia (thiopental); conditions: Mus musculus, po, P.O., 1 hour before 30mg/kg thiopental i.v., dose prolonging loss of righting reflex twice that of thiopental only, Litchfield and Wilcoxon
Experimental: (3) Potentiation of anesthesia
One hour after oral administration of the test compound, 30mg/kg of thiopental is intravenously injected, and the dose is determined which prolongs the duration of loss of the righting reflex twice that of the group administered only with thiopental.
(§1) (4) Calculation of ED50 values
(§2) The values are calculated according to the method of Litchfield and Wilcoxon [J. Pharmcol. Exp. Therap., 96, 99 (1949)].

mice [2] = experiment: Anti-bemegride convulsant effect; conditions: Mus musculus, po, P.O., 1 hour before 30mg/kg bemegride s.c., observed for 30 minutes, Litchfield and Wilcoxon
Experimental: (1) Anti-bemegride convulsant effect
One hour after oral administration of the test compound, 30mg/kg of bemegride is subcutaneously injected and the anti-convulsant activity of the compound is observed for 30 minutes.
as §1, §2

mice [3] = experiment: Anti-electroshock convulsant effect; conditions: Mus musculus, po, P.O., 1 hour before electroshock (1000V, 12.5mA, 0.2sec.) through both corneas, Litchfield and Wilcoxon
Experimental: (2) Anti-electroshock convulsant effect
One hour after oral administration of the test compound, an electroshock (1000V, 12.5mA, 0.2sec.) is applied through both corneas and anti-convulsant activity of the compound is observed.
as §1, §2

SMILES	ED50 (mice [1])	ED50 (mice [2])	ED50 (mice [3])
CNC1=Nc2ccc(Cl)cc2C(c2ccccc2)=[N+]([O-])C1 [Chlordiazepoxide]	12 mg/kg	2.7 mg/kg	27 mg/kg
NCC(=O)Nc1ccc(Br)cc1C(=NCCO)c1ccccc1F [2-{[2-Aminoacetamido-5-bromo-α -(2-fluorophenyl)benzylidene]amino}ethanol]	2.9 mg/kg	0.31 mg/kg	8 mg/kg
